Consider 3 compounds from patent US20240100121A1, “COMPOSITIONS OF A BETA-HAIRPIN PEPTIDOMIMETIC AND AEROSOL DOSAGE FORMS THEREOF” (priority 2020, published 2024).

In assay [1] the test system is Pseudomonas aeruginosa isolates from respiratory samples of people with cystic fibrosis. The experiment in a line: Planktonic susceptibility (MIC) of CF isolates. It counts as cell-based. From the text:
(§1) To perform biofilm tests with the Calgary device, fifty-three Pseudomonas aeruginosa isolates from respiratory samples of people with cystic fibrosis were selected among the 414 Pseudomonas aeruginosa of the iABC-collection (Ekkelenkamp M B et al., Antimicrob. Agents Chemother. 2019, 64, 1-7). A representative number of isolates from Northern Ireland, Spain, the Netherlands, and Australia were chosen, including different morphotyes: 18 smooth, 11 mucoid, 11 rough, 10 metallic, and 3 small colony variants. As control strains, the PAO (most commonly used strain for research on this ubiquitous and metabolically versatile opportunistic pathogen, Klockgether J et al., Journal of Bacteriology 2010, 192, 1113-1121) and its hypermutator derivative, PAO mutS strains were used (Oliver A et al., Antimicrob. Agents Chemother. 2004, 48, 4226-33).

For assay [2], the system named is Pseudomonas aeruginosa isolates from respiratory samples of people with cystic fibrosis growing in biofilms. It is filed as cell-based. The note with it: biofilm, Calgary device, CF isolates.
From the text: Two types of assays, an open and a closed system, were used to evaluate the in vitro activity on biofilms. The closed or static system based on the Calgary device (Diez-Aguilar M et al., Antimicrob Agents Chemother. 2018, 62, e01650-17, doi: 10.1128/AAC.01650-17, Moskowitz S M et al., J. Clin. Microbiol. 2004, 42, 1915-1922) analyzes biofilm formation in the wells of microtiter plates and is suitable for high-throughput analysis, obtaining pharmacodynamics (PD) parameters, while the open or dynamic system using the BioFlux device (Benoit M R et al., Appl. Environ. Microbiol. 2010, 76, 4136-4142) better resembles the in vivo conditions.
as §1
(§2) This assay was performed as previously described but with minimal variations (Benoit M R et al., Appl. Environ. Microbiol. 2010, 76, 4136-4142) (FIG. 3). Briefly, a 0.5 McFarland culture was transferred to a flat-bottom 96-well microtiter plate (Nalge Nunc International, Rochester, New York, USA). Bacterial biofilm was formed around the pegs of a modified polystyrene microtiter lid. This lid with pegs was immersed into a growth plate and incubated for 20 h at 37° C. After rinsing the pegs 3 times in saline solution they were placed onto the antimicrobial in BBL™ Mueller-Hinton II cation-adjusted broth (MHB) (Becton, Dickinson and Company, Sparks, MD, USA) and incubated for 20 h at 37° C. […] After this incubation, the biofilm was recovered centrifuging (800 RPM/10 min) the peg lid in an antibiotic-free MHB filled-microtiter plate. The minimal biofilm inhibitory concentration (MBIC) was calculated after measuring the optical density (OD) (450 nm) before and after 6-hour incubation. Biofilm growth was defined as a mean OD difference of ≥0.05. […] The minimal biofilm eradication concentration (MBEC) was defined as the lowest concentration that prevents visible growth in the biofilm recovery medium after 18 h of the microtiter plate incubation (Ceri H et al., J. Clin. Microbiol. 1999, 37, 1771; Macià M D et al., Enferm. Infecc. Microbiol. Clin. 2018, 36, 375-381).
MBIC and the MBEC are used to determine the anti-biofilm antibiotic in vitro efficacy. MBIC is the lowest concentration at which there is no time-dependent increase in the mean number of biofilm viable cells comparing an early with a later exposure time, while the MBEC indicates the eradication (partly or completely) of biofilm viable cells (Thieme L et al., Biol. Proced. Online 2019, 21, 1-5).

Assay [3] concerns PA34 (smooth phenotype). The experiment in a line: microbe, parasite or virus in culture. As to conditions: PA34. It is filed as cell-based, Pseudomonas aeruginosa. The method, then:
(§3) Two CF isolates, PA34 (smooth phenotype) and PA40 (mucoid phenotype), and the 2 reference strains PAO and PAO mutS were tested with the BioFlux device. None of the clinical strains were hypermutators.
(§4) Planktonic and biofilm susceptibility of the strains established in the Calgary device and used in the BioFlux device are described in Table 12.

The subject of assay [4] is PA40 (mucoid phenotype). Briefly: microbe, parasite or virus in culture. It counts as cell-based, Pseudomonas aeruginosa. As to conditions: PA40. The method, then:
as §3, §4

For assay [5], the system named is PAO. The experiment in a line: microbe, parasite or virus in culture. It is filed as cell-based, Pseudomonas aeruginosa. The note with it: PAO. The procedure:
as §3, §4

Assay [6] deals with PAO mutS. Briefly: Planktonic susceptibility (MIC), PAO mutS. It counts as cell-based, Pseudomonas aeruginosa. The method, then: as §3, §4
Assay [7] has as its system PA34 (smooth phenotype). It is filed as cell-based, Pseudomonas aeruginosa. As to conditions: PA34. The procedure: as §3, §2, §4
Assay [8] concerns PA40 (mucoid phenotype). It counts as cell-based, Pseudomonas aeruginosa. As to conditions: PA40. The method, then: as §3, §2, §4
Assay [9] concerns PAO mutS. It counts as cell-based, Pseudomonas aeruginosa. The procedure: as §3, §2, §4
Assay [10] concerns PAO. It is filed as cell-based, Pseudomonas aeruginosa. The note with it: PAO. The procedure: as §3, §2, §4
Assay [11] relates to PAO, PAO mutS, PA40, PA34. The experiment in a line: Planktonic susceptibility of all strains used in the BioFlux device. It is filed as cell-based, Pseudomonas aeruginosa. The procedure: as §3, §4
Setting [12] is: Pseudomonas aeruginosa, read-out: MIC50.
Where [13] appears, read: Pseudomonas aeruginosa, read-out: MIC90.
[14] abbreviates: Pseudomonas aeruginosa, read-out: MIC.

In brackets after ≈: the same amount, converted by molar mass. Where two headings read alike, the source gives them in different places. Where only a bound is given, the exact number is not on record here.

By MIC50 is commonly meant the lowest concentration that inhibits either 50% of growth or 50% of the strains tested, depending on the study. One may read the MIC90 as the lowest concentration that inhibits either 90% of growth or 90% of the strains tested, depending on the study. Compound `C[C@H]1[C@H](NC(=O)/C(=N\OC(C)(C)C(=O)O)c2csc(N)n2)C(=O)N1S(=O)(=O)O` [aztreonam] displayed an MIC range in [1] of 0.5 to 512 µg/mL. The MIC50 in [1] (setting [12]) worked out at 4 µg/mL (≈ 9.19 µM). The MIC90 in [1] (setting [13]) was determined as 256 µg/mL (≈ 588 µM). In addition, the MBEC50 in [2] is recorded as 512/>512 mg/L. In addition, the MBEC90 in assay [2] is 512/>512 mg/L. Also, the MBIC50 in assay [2] is 32 mg/L. For the same compound, in assay [2], the MBIC90 is listed as above 512 mg/L. For the same compound, the MIC was determined as 0.5 µg/mL (≈ 1.15 µM) in the assay with PA34 (smooth phenotype) [3] (setting [14]), 16 µg/mL (≈ 36.7 µM) in the assay on PA40 (mucoid phenotype) [4] (setting [14]), 4 µg/mL (≈ 9.19 µM) with PAO [5] (setting [14]) and 64 µg/mL (≈ 147 µM) in the assay with PAO mutS [6] (Pseudomonas aeruginosa). Also, the MBEC is recorded as 256 mg/L in the assay on PA34 (smooth phenotype) [7], above 256 mg/L in the assay with PA40 (mucoid phenotype) [8], above 256 mg/L in the assay on PAO mutS [9] and above 256 mg/L in the assay on PAO [10]. The MBIC with PA34 (smooth phenotype) [7] is on record as 8 mg/L; with PA40 (mucoid phenotype) [8], 32 mg/L; in the assay on PAO mutS [9], above 256 mg/L; in the assay on PAO [10] it was above 256 mg/L.

The compound `NC[C@H]1O[C@H](O[C@H]2[C@H](O)[C@@H](O[C@H]3O[C@H](CO)[C@@H](O)[C@H](N)[C@H]3O)[C@H](N)C[C@@H]2N)[C@H](N)C[C@@H]1O` [tobramycin] displayed an MIC range in assay [1] of at most 0.5 to 256 µg/mL. Further, the MIC50 in assay [1] (setting [12]) was 2 µg/mL (≈ 4.28 µM). The MIC90 in assay [1] (setting [13]) is 16 µg/mL (≈ 34.2 µM). Moreover, in [2], the MBEC50 is 8 mg/L. In [2], this compound showed an MBEC90 of 256 mg/L. The compound also had an MBEC range in assay [2] of at most 0.5 to 512 mg/L. In assay [2], this compound registered an MBIC50 of 2 mg/L. Also, the MBIC90 in assay [2] is given as 32 mg/L. In [2], this compound registered an MBIC range of at most 0.5 to 512 mg/L. Further, the MIC with PA34 (smooth phenotype) [3] (setting [14]) is 0.25 µg/mL (≈ 0.535 µM); in the assay on PA40 (mucoid phenotype) [4] (setting [14]), 0.5 µg/mL (≈ 1.07 µM); with PAO [5] (setting [14]) it was 0.5 µg/mL (≈ 1.07 µM); in the assay on PAO mutS [6] (Pseudomonas aeruginosa), 2 µg/mL (≈ 4.28 µM); in assay [11] (Pseudomonas aeruginosa), 2 µg/mL (≈ 4.28 µM). Further, the MBEC stood at 2 mg/L in the assay with PA34 (smooth phenotype) [7], 4 mg/L in the assay with PA40 (mucoid phenotype) [8], 32 mg/L in the assay with PAO mutS [9] and 16 mg/L with PAO [10]. Also, the MBIC in the assay with PA34 (smooth phenotype) [7] is listed as 2 mg/L; with PA40 (mucoid phenotype) [8] it was 2 mg/L; in the assay on PAO mutS [9], 16 mg/L; in the assay on PAO [10], 2 mg/L.

With colistin, in assay [1], the MIC50 worked out at 1 µg/mL, the MIC90 is 4 µg/mL and the MIC range was at most 0.5 to 16 µg/mL. In assay [2], the MBEC50 was found to be 64 mg/L, the MBEC90 is reported as 128 mg/L, the MBEC range was at most 0.5 to 256 mg/L and the MBIC50 was found to be 8 mg/L. Besides, in assay [2], the MBIC90 is 64 mg/L and the MBIC range is at most 0.5 to 256 mg/L. The MIC against PA34 (smooth phenotype) [3] came to 2 µg/mL. Besides, the MIC in the assay with PA40 (mucoid phenotype) [4] turned out to be 0.5 µg/mL. In the assay with PAO [5], this compound yielded an MIC of 1 µg/mL. This compound gave an MIC in the assay with PAO mutS [6] (PAO mutS) of 1 µg/mL. Also, in the assay on PA34 (smooth phenotype) [7], the MBEC is given as 128 mg/L and the MBIC came out at 32 mg/L. In addition, in the assay with PA40 (mucoid phenotype) [8], the MBEC was found to be 32 mg/L and the MBIC is 32 mg/L. Further, in the assay with PAO mutS [9], the MBEC stood at 256 mg/L and the MBIC was 256 mg/L. Moreover, in the assay on PAO [10], the MBEC is 128 mg/L and the MBIC was 64 mg/L. For the same compound, the MIC in assay [11] (all tested strains susceptible) stood at 2 µg/mL.
